Test results from PubChem BioAssay AID252 (DTP/NCI, 2004).
“And” between values parts separate entries of the source, which are not always exact repeats. Identical values can stand only once. Inconclusive results and toxic doses are left out.

Test system: BDF1 mice, intracerebral L1210 leukemia, survival T/C
Test: NCI In Vivo Anticancer Drug Screen. Data for tumor model L1210 Leukemia (intracerebral) in B6D2F1 (BDF1) mice
Details: higher = longer survival
In short: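 Antitumour effect is judged in mice with transplanted tumour by comparing survival of treated (T) against vehicle-dosed (C) groups as T/C.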

[1] = endpoint: mean survival time, dose: 10.0 mg/kg/injection, schedule: Q01DX009 (ip), vehicle: saline
[2] = endpoint: mean survival time, dose: 20.0 mg/kg/injection, schedule: Q01DX009 (ip), vehicle: saline

CC1CCC(NC(=O)N(CCCl)N=O)CC1 (stereo not drawn)
T/C (endpoint: mean survival time, dose: 2.0 mg/kg/injection, schedule: Q01DX001 (ip), vehicle: clinical formulation): 100 % of control | T/C (endpoint: mean survival time, dose: 2.0 mg/kg/injection, schedule: Q01DX009 (ip), vehicle: other): 117 % of control | T/C (endpoint: mean survival time, dose: 3.13 mg/kg/injection, schedule: Q01DX009 (ip), vehicle: Klucel (hydroxypropylcellulose) (HPC)): 112 % of control | T/C (endpoint: mean survival time, dose: 4.0 mg/kg/injection, schedule: Q01DX001 (ip), vehicle: clinical formulation): 105 % of control | T/C (endpoint: mean survival time, dose: 4.0 mg/kg/injection, schedule: Q01DX001 (ip), vehicle: saline): 103 % of control | T/C (endpoint: mean survival time, dose: 4.3 mg/kg/injection, schedule: Q01DX001 (ip), vehicle: other): 104 % of control and 107 % of control | T/C (endpoint: mean survival time, dose: 5.0 mg/kg/injection, schedule: Q01DX001 (ip), vehicle: other): 115 % of control | T/C (endpoint: mean survival time, dose: 5.0 mg/kg/injection, schedule: Q01DX009 (ip), vehicle: saline): 161 % of control | T/C (endpoint: mean survival time, dose: 5.4 mg/kg/injection, schedule: Q01DX001 (oral), vehicle: other): 110 % of control | T/C (endpoint: mean survival time, dose: 8.0 mg/kg/injection, schedule: Q01DX001 (ip), vehicle: Klucel (hydroxypropylcellulose) (HPC)): 112 % of control | T/C (endpoint: mean survival time, dose: 8.0 mg/kg/injection, schedule: Q01DX001 (ip), vehicle: clinical formulation): 115 % of control | T/C (endpoint: mean survival time, dose: 8.0 mg/kg/injection, schedule: Q01DX001 (ip), vehicle: saline): 118 % of control | T/C (endpoint: mean survival time, dose: 8.0 mg/kg/injection, schedule: Q01DX009 (ip), vehicle: other): 183 % of control | T/C (endpoint: mean survival time, dose: 9.0 mg/kg/injection, schedule: Q01DX001 (ip), vehicle: other): 110 % of control and 112 % of control | T/C [1]: 151 % of control | T/C (endpoint: mean survival time, dose: 12.5 mg/kg/injection, schedule: Q01DX009 (ip), vehicle: Klucel (hydroxypropylcellulose) (HPC)): 161 % of control | T/C (endpoint: mean survival time, dose: 16.0 mg/kg/injection, schedule: Q01DX001 (ip), vehicle: saline): 153 % of control | T/C (endpoint: mean survival time, dose: 16.0 mg/kg/injection, schedule: Q01DX009 (ip), vehicle: other): 113 % of control | T/C (endpoint: mean survival time, dose: 20.0 mg/kg/injection, schedule: Q01DX001 (ip), vehicle: other): 188 % of control | T/C [2]: 98 % of control | T/C (endpoint: mean survival time, dose: 24.0 mg/kg/injection, schedule: Q01DX001 (ip), vehicle: other): 175 % of control and 185 % of control | T/C (endpoint: mean survival time, dose: 25.0 mg/kg/injection, schedule: Q01DX009 (ip), vehicle: Klucel (hydroxypropylcellulose) (HPC)): 109 % of control | T/C (endpoint: mean survival time, dose: 30.0 mg/kg/injection, schedule: Q01DX001 (ip), vehicle: other): 187 % of control and 198 % of control | T/C (endpoint: mean survival time, dose: 32.0 mg/kg/injection, schedule: Q01DX001 (ip), vehicle: clinical formulation): 160 % of control | T/C (endpoint: mean survival time, dose: 32.0 mg/kg/injection, schedule: Q01DX001 (oral), vehicle: clinical formulation): 102 % of control | T/C (endpoint: mean survival time, dose: 36.0 mg/kg/injection, schedule: Q01DX001 (oral), vehicle: other): 238 % of control and 243 % of control and 292 % of control | T/C (endpoint: mean survival time, dose: 40.0 mg/kg/injection, schedule: Q01DX001 (ip), vehicle: other): 280 % of control | T/C (endpoint: mean survival time, dose: 45.0 mg/kg/injection, schedule: Q01DX001 (ip), vehicle: other): 225 % of control and 251 % of control | T/C (endpoint: mean survival time, dose: 45.0 mg/kg/injection, schedule: Q01DX001 (oral), vehicle: other): 306 % of control and 362 % of control | T/C (endpoint: mean survival time, dose: 54.0 mg/kg/injection, schedule: Q01DX001 (oral), vehicle: other): 189 % of control and 248 % of control and 357 % of control | T/C (endpoint: mean survival time, dose: 67.0 mg/kg/injection, schedule: Q01DX001 (ip), vehicle: other): 168 % of control | T/C (endpoint: mean survival time, dose: 72.0 mg/kg/injection, schedule: Q01DX001 (ip), vehicle: other): 209 % of control and 306 % of control | T/C (endpoint: mean survival time, dose: 90.0 mg/kg/injection, schedule: Q01DX001 (oral), vehicle: other): 91 % of control | T/C (endpoint: mean survival time, dose: 91.0 mg/kg/injection, schedule: Q01DX001 (oral), vehicle: other): 114 % of control | T/C (endpoint: mean survival time, dose: 128.0 mg/kg/injection, schedule: Q01DX001 (ip), vehicle: Klucel (hydroxypropylcellulose) (HPC)): 109 % of control | T/C (endpoint: mean survival time, dose: 128.0 mg/kg/injection, schedule: Q01DX001 (ip), vehicle: clinical formulation): 103 % of control | T/C (endpoint: mean survival time, dose: 128.0 mg/kg/injection, schedule: Q01DX001 (ip), vehicle: saline): 103 % of control | T/C (endpoint: mean survival time, dose: 256.0 mg/kg/injection, schedule: Q01DX001 (ip), vehicle: Klucel (hydroxypropylcellulose) (HPC)): 111 % of control | T/C (endpoint: mean survival time, dose: 256.0 mg/kg/injection, schedule: Q01DX001 (oral), vehicle: clinical formulation): 112 % of control | T/C (endpoint: median survival time, dose: 2.0 mg/kg/injection, schedule: Q01DX001 (ip), vehicle: clinical formulation): 106 % of control | T/C (endpoint: median survival time, dose: 2.0 mg/kg/injection, schedule: Q01DX001 (ip), vehicle: saline): 106 % of control | T/C (endpoint: median survival time, dose: 4.0 mg/kg/injection, schedule: Q01DX001 (ip), vehicle: clinical formulation): 113 % of control | T/C (endpoint: median survival time, dose: 4.0 mg/kg/injection, schedule: Q01DX001 (ip), vehicle: saline): 115 % of control | T/C (endpoint: median survival time, dose: 8.0 mg/kg/injection, schedule: Q01DX001 (ip), vehicle: clinical formulation): 122 % of control | T/C (endpoint: median survival time, dose: 16.0 mg/kg/injection, schedule: Q01DX001 (ip), vehicle: saline): 178 % of control | T/C (endpoint: median survival time, dose: 32.0 mg/kg/injection, schedule: Q01DX001 (ip), vehicle: clinical formulation): 175 % of control | T/C (endpoint: median survival time, dose: 32.0 mg/kg/injection, schedule: Q01DX001 (ip), vehicle: saline): 159 % of control | T/C (endpoint: median survival time, dose: 32.0 mg/kg/injection, schedule: Q01DX001 (oral), vehicle: clinical formulation): 108 % of control | T/C (endpoint: median survival time, dose: 64.0 mg/kg/injection, schedule: Q01DX001 (oral), vehicle: clinical formulation): 150 % of control | T/C (endpoint: median survival time, dose: 128.0 mg/kg/injection, schedule: Q01DX001 (ip), vehicle: clinical formulation): 110 % of control | T/C (endpoint: median survival time, dose: 128.0 mg/kg/injection, schedule: Q01DX001 (ip), vehicle: saline): 117 % of control | T/C (endpoint: median survival time, dose: 256.0 mg/kg/injection, schedule: Q01DX001 (ip), vehicle: clinical formulation): 103 % of control | T/C (endpoint: median survival time, dose: 256.0 mg/kg/injection, schedule: Q01DX001 (ip), vehicle: saline): 102 % of control | T/C (endpoint: median survival time, dose: 256.0 mg/kg/injection, schedule: Q01DX001 (oral), vehicle: clinical formulation): 118 % of control | T/C (endpoint: median survival time, dose: 512.0 mg/kg/injection, schedule: Q01DX001 (oral), vehicle: clinical formulation): 98 % of control | T/C (endpoint: median survival time, dose: 1024.0 mg/kg/injection, schedule: Q01DX001 (oral), vehicle: clinical formulation): 83 % of control

Cc1cccc2c(Nc3ccc(NS(C)(=O)=O)cc3)c3ccc([N+](=O)[O-])cc3nc12
T/C [1]: 114 % of control | T/C (endpoint: mean survival time, dose: 10.0 mg/kg/injection, schedule: Q01DX009 (sc), vehicle: saline): 104 % of control | T/C [2]: 94 % of control | T/C (endpoint: mean survival time, dose: 20.0 mg/kg/injection, schedule: Q01DX009 (sc), vehicle: saline): 101 % of control | T/C (endpoint: mean survival time, dose: 40.0 mg/kg/injection, schedule: Q01DX009 (sc), vehicle: saline): 96 % of control

CC(=O)c1ccc(NC(=O)N(CCCl)N=O)cc1
T/C (endpoint: mean survival time, dose: 37.5 mg/kg/injection, schedule: Q01DX001 (ip), vehicle: carboxymethylcellulose (CMC)): 117 % of control | T/C (endpoint: mean survival time, dose: 50.0 mg/kg/injection, schedule: Q01DX001 (ip), vehicle: carboxymethylcellulose (CMC)): 118 % of control | T/C (endpoint: mean survival time, dose: 75.0 mg/kg/injection, schedule: Q01DX001 (ip), vehicle: carboxymethylcellulose (CMC)): 121 % of control

COS(C)(=O)=O
T/C (endpoint: median survival time, dose: 16.0 mg/kg/injection, schedule: Q01DX005 (ip), vehicle: saline): 104 % of control | T/C (endpoint: median survival time, dose: 32.0 mg/kg/injection, schedule: Q01DX005 (ip), vehicle: saline): 99 % of control | T/C (endpoint: median survival time, dose: 64.0 mg/kg/injection, schedule: Q01DX005 (ip), vehicle: saline): 99 % of control | T/C (endpoint: median survival time, dose: 128.0 mg/kg/injection, schedule: Q01DX005 (ip), vehicle: saline): 101 % of control

CC1CCCC(NC(=O)N(CCCl)N=O)C1 (stereo not drawn)
T/C (endpoint: mean survival time, dose: 27.0 mg/kg/injection, schedule: Q01DX001 (ip), vehicle: other): 174 % of control | T/C (endpoint: mean survival time, dose: 42.0 mg/kg/injection, schedule: Q01DX001 (ip), vehicle: other): 150 % of control and 251 % of control | T/C (endpoint: mean survival time, dose: 62.0 mg/kg/injection, schedule: Q01DX001 (ip), vehicle: other): 256 % of control and 273 % of control | T/C (endpoint: mean survival time, dose: 71.0 mg/kg/injection, schedule: Q01DX001 (ip), vehicle: other): 261 % of control | T/C (endpoint: mean survival time, dose: 93.0 mg/kg/injection, schedule: Q01DX001 (ip), vehicle: other): 205 % of control and 223 % of control | T/C (endpoint: mean survival time, dose: 286.0 mg/kg/injection, schedule: Q01DX001 (ip), vehicle: other): 92 % of control

COc1cc([C@@H]2c3cc4c(cc3[C@@H](OC3OC5COC(C)OC5C(O)C3O)[C@H]3COC(=O)[C@H]23)OCO4)cc(OC)c1O (stereo partly drawn)
T/C (endpoint: mean survival time, dose: 2.0 mg/kg/injection, schedule: Q01DX009 (oral), vehicle: Klucel (hydroxypropylcellulose) (HPC)): 108 % of control | T/C (endpoint: mean survival time, dose: 4.0 mg/kg/injection, schedule: Q01DX009 (oral), vehicle: Klucel (hydroxypropylcellulose) (HPC)): 118 % of control | T/C (endpoint: mean survival time, dose: 12.0 mg/kg/injection, schedule: Q04DX003 (ip), vehicle: saline): 109 % of control | T/C (endpoint: mean survival time, dose: 16.0 mg/kg/injection, schedule: Q01DX009 (oral), vehicle: Klucel (hydroxypropylcellulose) (HPC)): 116 % of control | T/C (endpoint: mean survival time, dose: 18.0 mg/kg/injection, schedule: Q04DX003 (ip), vehicle: saline): 108 % of control | T/C (endpoint: mean survival time, dose: 27.0 mg/kg/injection, schedule: Q04DX003 (ip), vehicle: saline): 109 % of control | T/C (endpoint: mean survival time, dose: 32.0 mg/kg/injection, schedule: Q01DX009 (oral), vehicle: Klucel (hydroxypropylcellulose) (HPC)): 94 % of control | T/C (endpoint: mean survival time, dose: 40.0 mg/kg/injection, schedule: Q04DX003 (ip), vehicle: saline): 118 % of control | T/C (endpoint: mean survival time, dose: 60.0 mg/kg/injection, schedule: Q04DX003 (ip), vehicle: saline): 110 % of control
